In PubChem BioAssay (NCI) one finds TGI and GI50 data, which are given here for eight compounds.

SMILES strings stand for the structures. Where “and” joins values, the source holds several entries; their conditions need not be identical. Equal entries are not always repeated.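 The compound was tested at five concentrations on cells cultured in 96-well plates, with a 48-hour exposure period. The concentration for 50% growth inhibition is given as GI50. TGI denotes the concentration required for complete inhibition of growth.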 Where a SMILES comes first, the peptide text is derived from it. [ ]: non-standard residue; d: D form. Phe(F5) = N[CH](Cc1c(F)c(F)c(F)c(F)c1F)C(=O)O A value given as a limit tells only on which side of the number the result lay.

What all share (assay): growth of human tumour cells (NCI), 48 h
Test [1] concerns HCC-2998 colon.
Test [2] has as its system SW-620 colon.
Test [3] concerns KM12 colon.
Test [4] concerns CAKI-1 renal.
For test [5], the system named is K-562 leukemia.
The test system of test [6] is RPMI-8226 leukemia.
For test [7], the system named is NCI-H522 lung.
For test [8], the system named is A549 NSCLC.
In test [9] the test system is DU-145 prostate.
Test [10] concerns UACC-62 melanoma.

In the case of `CCc1ccc(NCc2cc(OC)c(OC)c(OC)c2)cc1`, the TGI in test [1] was 11000 nM and 12100 nM; in test [2], over 100000 nM; in [3], 20800 nM and 13800 nM; in [4], over 100000 nM; in test [5], 26400 nM and 52400 nM; in [6] it was 40700 nM and 52000 nM. Moreover, the TGI in [7] is 590 nM and 807 nM; in test [8], 98200 nM and > 92200 nM; in test [9], > 100000 nM and 19500 nM; in [10] it was 83100 nM and > 85300 nM. Moreover, the GI50 was 87.1 nM and 54.1 nM in test [2]; 111 nM in test [5]; 274 nM in test [7]; 693 nM and 216 nM in test [8]; 220 nM and 105 nM in test [10].
On to `CC12CCC=CC1CCC1C2CCC2(C)C(c3ccc(=O)oc3)CCC12O` (configuration not stated), for which the GI50 in test [1] was 342 nM; in test [2], 55.8 nM; in test [3], 134 nM; in [4], 94.2 nM; in test [5], 58.7 nM; in test [6], 99.4 nM. The GI50 in test [7] is 39.8 nM; in [8] it was 29.5 nM; in [9], 55.3 nM; in test [10], 221 nM. Moreover, the TGI turned out to be 3420 nM in [1]; 330 nM in test [2]; 1450 nM in [3]; 548 nM in test [4]; 777 nM in test [6]; 283 nM in [7]. The TGI in test [8] amounted to 111 nM; in [9], 165 nM; in test [10], 723 nM.
`N=C(N)c1nn(C2OC(CO)C(O)C2O)c2nc[nH]c(=O)c12` (configuration not stated): the GI50 in [1] is 849 nM; in test [2], 530 nM; in test [3] it was 341 nM; in test [4], 264 nM; in test [5], 367 nM; in test [6], 352 nM. In addition, the GI50 is 239 nM in [7], 659 nM in test [8], 196 nM in test [9] and 431 nM in test [10]. The TGI amounted to 3370 nM in [1]; 3280 nM in test [2]; 1460 nM in test [3]; 1200 nM in test [4]; 3630 nM in test [5]; 2500 nM in [6]. Besides, the TGI in test [7] came out at 690 nM; in test [8], 13400 nM; in [9], 780 nM; in test [10] it was 1630 nM.
As for `CC(C)(C(=O)NN)c1ccccc1`, the TGI in [1], in test [2], in test [3], in [4], in test [5] and in [6] was over 100000 nM each time. Moreover, the TGI in test [7], in test [8], in test [9] and in test [10] was over 100000 nM in each case.
In the case of `COc1cc2c(cc1OC)-c1ccc3cc4c(cc3c1N(CCN1CCCC1)C2)OCO4`, the GI50 in test [1] was 1090 nM; in [2], 472 nM; in test [3], 538 nM; in test [4], 814 nM; in [5] it was 291 nM; in test [6], 224 nM. For the same compound, the GI50 is 217 nM in [7], 534 nM in test [8], 376 nM in test [9] and 1070 nM in [10]. Moreover, the TGI turned out to be 2430 nM in test [1]; 2280 nM in [2]; 1990 nM in [3]; 11500 nM in [4]; 1650 nM in [5]; 723 nM in test [6]. The TGI is 1430 nM in [7], 2020 nM in test [8], 2500 nM in [9] and 3000 nM in [10].
Consider `CCN1C(=O)N(CC)C2C1NN=c1s/c(=C3\C(=O)N(C(C)C)c4ccccc43)c(=O)n12` (configuration not stated), for which the GI50 in test [1] is 357 nM; in [2] it was 417 nM; in test [3] it was 384 nM; in test [4], 423 nM; in test [5], 329 nM; in test [6], 429 nM. Further, the GI50 in [7] is 465 nM; in test [8], 459 nM; in test [9], 377 nM; in test [10], 466 nM. Moreover, the TGI in [1] was over 20800 nM; in [2], over 100000 nM; in test [3], over 100000 nM; in [4], over 54400 nM; in [5], over 100000 nM; in test [6], over 100000 nM. The TGI in [7] is over 100000 nM; in test [8], over 100000 nM; in [9] it was 3130 nM; in test [10] it was over 36200 nM.
Consider `O=C(Nc1cccc(Cl)c1)Nc1ncc(CCNc2ncnc3ccsc23)s1`, for which the GI50 in [1] was 9380 nM and > 10000 nM; in [2] it was 14500 nM and > 10000 nM; in test [3], 120 nM and 65.7 nM; in test [4], 1120 nM and 1340 nM; in [5], 3540 nM and 2400 nM; in test [6] it was 2980 nM and 1320 nM. Moreover, the GI50 is 1760 nM and 1340 nM in test [7]; 748 nM and 493 nM in test [8]; 4590 nM and 2740 nM in [9]; 1100 nM in test [10]. In addition, the TGI is 25600 nM and > 10000 nM in [1]; 65300 nM and > 10000 nM in test [2]; over 35300 nM in test [3]; 22800 nM and > 10000 nM in test [4]; over 100000 nM in test [5]; 33500 nM and 5810 nM in test [6]. For the same compound, the TGI in [7] was 9890 nM and > 10000 nM; in test [8], 16100 nM and > 10000 nM; in test [9], 20500 nM and > 10000 nM; in test [10] it was 11700 nM.
Turning to `COC(=O)C(CC(C)C)NC(=O)C(Cc1cnc[nH]1)NC(=O)CNC(=O)C(NC(=O)C(C)NC(=O)C(Cc1c[nH]c2ccccc12)NC(=O)C(CCC(=O)O)NC(=O)C(N)Cc1c(F)c(F)c(F)c(F)c1F)C(C)C` (configuration not stated) (H-[Phe(F5)]EWAVGHL-OMe; configuration not given here), the GI50 in test [1], in test [2], in [3], in test [4], in test [5] and in test [6] was over 100000 nM throughout. Besides, the GI50 in [8] and in test [10] was over 100000 nM each time. For the same compound, the TGI in [1], in [2], in test [3], in [4], in test [5] and in test [6] was over 100000 nM each time. In addition, the TGI in [7] is over 12500 nM; in test [8], over 100000 nM; in test [9], over 12500 nM; in test [10], over 100000 nM.
